Measurements from US20220324835A1 (Nurix Therapeutics, Inc., priority 2018, published 2022).

Tests used:
[1] = target: T1, Cbl-b (Homo sapiens, UniProt Q13191); experiment: Cbl-b activity assay (Cbl-b inhibition assay), TR-FRET of Cbl-b interaction with UbcH5B-Ub; format: biochemical
Summary of the method: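 UbcH5B (C85K) conjugated to N-terminally Bodipy-Fluorescein-labeled ubiquitin served as the fluorescent partner. After compound preincubation, Src kinase (60 nM) with 1 mM ATP and 5 mM MgCl2 (final) was added for 1.5 h, followed by a further 1 h incubation. Some values were obtained with 50 mM NaCl and 30 nM Src.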

[2] = target: T1, Cbl-b; experiment: Cbl-b inhibition assay (Cbl-b activity assay, FRET, Biological Example 1; 100 mM NaCl, 60 nM Src kinase); format: biochemical; settings: upper bound stated in text lists; read-out: IC50 values in the Cbl-b inhibition assay of Biological Example 1
Summary of the method: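 FRET read-out: loss of signal marks inhibition. Mix = biotin-Avi-Cbl-b (N-term), Src kinase, UbcH5B-Ub(Bodipy-FL, irreversible conjugate), streptavidin-Tb, assay buffer.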

[3] = target: Cbl-b (residues 36-427) (Homo sapiens, UniProt Q13191); experiment: Cbl-b binding assay (SPR, Biacore T200); settings: 20° C., 1:1 binding model
Protocol: SPR data was collected on a Biacore T200 (GE Healthcare) using a NeutrAvidin (Invitrogen) capture surface that was generated on a polycarboxylate hydrogel sensor chip of medium charge density (XanTec Bioanalytics GmbH) at 20° C. The surface was prepared using 20 mM HEPES, pH 7.5, 100 mM NaCl, 0.5 mM TCEP, 0.01% Triton X-100 as the immobilization buffer. Neutravidin was coupled to the sensor chip through EDC/NHS amine coupling. All steps were performed using a flow rate of 10 μl/min. First, the chip was preconditioned with a 3-min injection of 1 M NaCl, 0.1 M Borate followed by a 10-min equilibration in immobilization buffer. The surface was activated by a 5-min injection of 100 mM EDC/50 mM NHS. Next, 250 μg/mL NeutrAvidin buffered in 10 mM sodium acetate buffer, pH 5.0 was injected over the surface for 2 min. The surface was deactivated with 1 M Tris, pH 8.5 for 7 min then re-equilibrated in immobilization buffer for 7 min. […] Flow cell 1 served as a reference surface and was prepared without protein. All binding measurements were made in 20 mM HEPES, pH 7.5, 100 mM NaCl, 0.5 mM TCEP, 0.01% Triton X-100, 2% DMSO (referred as assay buffer) at 20° C. Compounds, prepared in assay buffer, were diluted from atop concentration of either 100 μM or 50 μM using either a 2- or 3-fold dilution scheme containing 8 or 10 points. Samples were injected for 50 s at 50 μl/min. Dissociation time varied from 90-180 s, depending on anticipated potency. The surface was regenerated by injection of 0.3 M NaCl, prepared in assay buffer for 20 s at 10 μl/min. Positive and negative control samples were run between each compound to monitor surface integrity.
Column marked with an asterisk (*) were tested as described above with assay buffer containing 50 mM NaCl instead of 100 mM NaCl and 30 nM Src kinase instead of 60 nM Src kinase. The resulting data for the Cbl-b binding assay was solvent corrected and double referenced prior to analysis. All data were globally fit to a steady-state affinity and kinetic binding model where applicable). Fit parameters were derived from a 1:1 binding model using the Biacore T200 Evaluation Software V2.0 (GE Healthcare) (Table 2).

[4] = assay buffer with 100 mM NaCl, 60 nM Src kinase, read-out: Cbl-b activity IC50

Sequence of Cbl-b (residues 36-427) (Q13191 36-427): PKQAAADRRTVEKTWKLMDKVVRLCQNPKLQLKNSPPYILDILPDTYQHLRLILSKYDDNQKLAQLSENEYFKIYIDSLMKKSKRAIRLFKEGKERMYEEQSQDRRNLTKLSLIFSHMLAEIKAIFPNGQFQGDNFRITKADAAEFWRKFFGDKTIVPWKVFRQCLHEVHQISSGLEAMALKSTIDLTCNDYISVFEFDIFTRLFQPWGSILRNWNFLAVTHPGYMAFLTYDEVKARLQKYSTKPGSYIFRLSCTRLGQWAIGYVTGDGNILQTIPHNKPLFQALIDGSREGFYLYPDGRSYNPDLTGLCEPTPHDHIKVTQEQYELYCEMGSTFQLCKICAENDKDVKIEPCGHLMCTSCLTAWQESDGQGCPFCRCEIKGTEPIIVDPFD
T1 sequence (Q13191 36-427): as above

Compound | IC50 [1, 4] | IC50 [2] | Kd [3] | IC50 ([1]; * assay buffer containing 50 mM NaCl instead of 100 mM NaCl and 30 nM Src kinase instead of 60 nM, read-out: Cbl-b activity IC50 (μM)*)
C[C@H](Sc1nncn1C)c1cccc(NC(=O)c2cccc(OC(F)(F)F)c2)c1 [Compound 79, (S)-N-(3-(1-((4-methyl-4H-1,2,4-triazol-3-yl)thio)ethyl)phenyl)-3-(trifluoromethoxy)benzamide] | 3 to 10 µM | ≤ 10 µM | 3 to 10 µM | –
C[C@H](Cc1nncn1C)c1cccc(NC(=O)c2cc(C(=O)N3C[C@@H](F)[C@@H](O)C3)ccn2)c1 [Compound 246, cis-4-(3-fluoro-4-hydroxypyrrolidine-1-carbonyl)-N-(3-((R)-1-(4-methyl-4H-1,2,4-triazol-3-yl)propan-2-yl)phenyl)picolinamide] | 1 to 3 µM | ≤ 10 µM | 1 to 3 µM | –
CNc1cccc(C(=O)Nc2cccc([C@H](C)Sc3nncn3C)c2)c1 [Compound 47, (S)-N-(3-(1-((4-Methyl-4H-1,2,4-triazol-3-yl)thio)ethyl)phenyl)-3-(methylamino)benzamide] | 3 to 10 µM | ≤ 10 µM | 3 to 10 µM | –
Cn1cnnc1C[C@@](C)(F)c1cccc(N2Cc3c(cccc3C(F)(F)F)C2=O)c1 [Compound 298a, (R)-2-(3-(2-fluoro-1-(4-methyl-4H-1,2,4-triazol-3-yl)propan-2-yl)phenyl)-4-(trifluoromethyl)isoindolin-1-one] | 1 to 3 µM | ≤ 10 µM | 3 to 10 µM | –
C[C@H](Sc1nncn1C)c1cccc(NC(=O)c2cc(C(F)(F)F)c3ccccc3n2)c1 [Compound 83, (S)-N-(3-(1-((4-methyl-4H-1,2,4-triazol-3-yl)thio)ethyl)phenyl)-4-(trifluoromethyl)quinoline-2-carboxamide] | 1 to 3 µM | ≤ 10 µM | 3 to 10 µM | –
C[C@H](Sc1nncn1C)c1ccnc(NC(=O)c2cc3c(cn2)CCCC3)c1 [Compound 109, (S)-N-(4-(1-((4-methyl-4H-1,2,4-triazol-3-yl)thio)ethyl)pyridin-2-yl)-5,6,7,8-tetrahydroisoquinoline-3-carboxamide] | 3 to 10 µM | ≤ 10 µM | 3 to 10 µM | –
Cc1cnc(C(=O)Nc2cccc([C@H](C)Sc3nncn3C)c2)cc1C(F)(F)F [Compound 52, (S)-5-methyl-N-(3-(1-((4-methyl-4H-1,2,4-triazol-3-yl)thio)ethyl)phenyl)-4-(trifluoromethyl)picolinamide] | 3 to 10 µM | ≤ 10 µM | > 10 µM | –
C[C@H](Cc1nncn1C)c1cccc(NC(=O)c2cc(C(=O)N3CC(S(C)(=O)=O)C3)ccn2)c1 [Compound 225, 4-(3-methanesulfonylazetidine-1-carbonyl)-N-[3-[(2R)-1-(4-methyl-4H-1,2,4-triazol-3-yl)propan-2-yl]phenyl]pyridine-2-carboxamide] | 1 to 3 µM | ≤ 10 µM | 3 to 10 µM | –
C[C@H](Sc1nncn1C)c1cccc(NC(=O)c2cc(C(=O)N3C[C@@H](O)C[C@H]3C)ccn2)c1 [Compound 152, 4-((2R,4S)-4-hydroxy-2-methylpyrrolidine-1-carbonyl)-N-(3-((S)-1-((4-methyl-4H-1,2,4-triazol-3-yl)thio)ethyl)phenyl)picolinamide] | 3 to 10 µM | ≤ 10 µM | 3 to 10 µM | –
C[C@H](Cc1nncn1C)c1cccc(NC(=O)c2cc(C(=O)N[C@H]3CCNC3)ccn2)c1 [Compound 248, N2-(3-((R)-1-(4-methyl-4H-1,2,4-triazol-3-yl)propan-2-yl)phenyl)-N4-((s)-pyrrolidin-3-yl)pyridine-2,4-dicarboxamide] | 3 to 10 µM | ≤ 10 µM | 3 to 10 µM | –
COc1c(C(=O)Nc2cccc([C@H](C)Sc3nncn3C)c2)cccc1C(F)(F)F [Compound 43, (S)-2-Methoxy-N-(3-(1-((4-methyl-4H-1,2,4-triazol-3-yl)thio)ethyl)phenyl)-3-(trifluoromethyl)benzamide] | 3 to 10 µM | ≤ 10 µM | > 10 µM | –
C[C@H](Sc1nncn1C)c1cccc(NC(=O)c2cc(C(=O)N3CC[C@@H](N(C)C)C3)ccn2)c1 [Compound 159, 4-((R)-3-(dimethylamino)pyrrolidine-1-carbonyl)-N-(3-((S)-1-((4-methyl-4H-1,2,4-triazol-3-yl)thio)ethyl)phenyl)picolinamide] | 3 to 10 µM | ≤ 10 µM | 3 to 10 µM | –
CC(Sc1nncn1C)c1cccc(NC(=O)c2ccc3c(n2)CCCC3)c1 (stereo not shown) [Compound 23, N-(3-(1-((4-Methyl-4H-1,2,4-triazol-3-yl)thio)ethyl)phenyl)-5,6,7,8-tetrahydroquinoline-2-carboxamide] | 1 to 3 µM | ≤ 10 µM | 3 to 10 µM | 1 to 3 µM
C[C@@H](Sc1nncn1C)c1cc(F)cc(N2Cc3c(cccc3C(F)(F)F)C2=O)c1 [Compound 168b, 2-[3-fluoro-5-[(1R)-1-[(4-methyl-1,2,4-triazol-3-yl)sulfanyl]ethyl]phenyl]-4-(trifluoromethyl)isoindolin-1-one] | 1 to 3 µM | ≤ 10 µM | 1 to 3 µM | –
C[C@@H](Cc1nncn1C)c1cc(F)cc(N2Cc3c(cccc3C(F)(F)F)C2=O)c1 [Compound 281b, 2-[3-Fluoro-5-[(1S)-1-methyl-2-(4-methyl-1,2,4-triazol-3-yl)ethyl]phenyl]-4-(trifluoromethyl)isoindolin-1-one] | 3 to 10 µM | ≤ 10 µM | 0.1 to 0.3 µM | –
C[C@H](Cc1nccn1C)c1cccc(NC(=O)c2cc(C(=O)N3CC[C@H](O)C3)ccn2)c1 [Compound 252a, 4-((S)-3-hydroxypyrrolidine-1-carbonyl)-N-(3-((R)-1-(1-methyl-1H-imidazol-2-yl)propan-2-yl)phenyl)picolinamide] | 1 to 3 µM | ≤ 10 µM | 3 to 10 µM | –
C[C@H](Sc1nncn1C)c1cccc(NC(=O)c2cc(C(=O)N3CC[C@H](N(C)C)C3)ccn2)c1 [Compound 160, 4-((S)-3-(dimethylamino)pyrrolidine-1-carbonyl)-N-(3-((S)-1-((4-methyl-4H-1,2,4-triazol-3-yl)thio)ethyl)phenyl)picolinamide] | 3 to 10 µM | ≤ 10 µM | 3 to 10 µM | –
C[C@@H](Sc1nncn1C)c1cccc(N2Cc3c(cccc3C(F)(F)F)C2=O)c1 [Compound 166b, (R)-2-(3-(1-(4-methyl-4H-1,2,4-triazol-3-ylthio)ethyl)phenyl)-4-(trifluoromethyl)isoindolin-1-one] | 1 to 3 µM | ≤ 10 µM | 3 to 10 µM | –
Cn1cnnc1SC(CCO)c1cccc(NC(=O)c2cccc(C(F)(F)F)n2)c1 (stereo not shown) [Compound 181, N-(3-(3-hydroxy-1-((4-methyl-4H-1,2,4-triazol-3-yl)thio)propyl)phenyl)-6-(trifluoromethyl)picolinamide] | 1 to 3 µM | ≤ 10 µM | 3 to 10 µM | –
C[C@H](Cc1nncn1C)c1cccc(NC(=O)c2cc(N[C@H]3CC[C@@H](O)C3)ccn2)c1 [Compound 208, cis-4-(3-hydroxycyclopentylamino)-N-(3-((R)-1-(4-methyl-4H-1,2,4-triazol-3-yl)propan-2-yl)phenyl)picolinamide] | 0.301 to 1 µM | ≤ 1 µM | 3 to 10 µM | –
C[C@@H](Sc1nncn1C)c1ccnc(N2Cc3c(cccc3C(F)(F)F)C2=O)c1 [Compound 172b, (R)-2-(4-(1-((4-methyl-4H-1,2,4-triazol-3-yl)thio)ethyl)pyridin-2-yl)-4-(trifluoromethyl)isoindolin-1-one] | 3 to 10 µM | ≤ 10 µM | > 10 µM | –
